Results reported in publication PMC9030166, “Natural Phaeosphaeride A Derivatives Overcome Drug Resistance of Tumor Cells and Modulate Signaling Pathways” (Pharmaceuticals, 2022).
pIC50: −log10 of the molar value.

Key:
[1] = tested on: p38 (pThr180/pTyr182); assay: MILLIPLEX MAP 9-Plex, p38 active form in A431 lysates; type: cell-based, human; conditions: 10 μM
From the text: (§1) We used the MILLIPLEX MAP Multi-Pathway Magnetic Bead 9-Plex-Cell Signaling Multiplex Assay, which allows the simultaneous detection of nine phosphorylated proteins that are markers of the main intracellular signaling pathways (phosphorylation site is indicated in parentheses), a universal transcription factor that controls the expression of immune response genes; apoptosis and cell cycle NFκB (pS536); cAMP-dependent transcription factor (CREB (pS133); mitogen-activated kinase p38 (pT180/pY182); stress-activated protein kinase JNK (pT183/pY185); ribosomal […]; transcription factors STAT3 (pS727) and STAT5A/B (pY694/699); protein kinase B (Akt) (pS473); and kinase regulated by extracellular signals ERK1/2 (pT185/pY187).
(§2) The effect of various concentrations of PPA derivatives on the cell culture was studied using xCelligence RTCA equipment (AceaBioscience, San Diego, CA, USA). The concentration closest to the IC50 (10 μM) was chosen as the experimental concentration. The selected concentration of phaeosphaeride A derivatives allows for the assessment of the early effect of compounds on cells and compares their effectiveness. In this experiment, the signaling pathways Akt (pSer473), p70S6K (pThr412), NFkB (p65-pSer536), and CREB (pSer133) were not activated (Table 8). The stress-activated signaling pathways ERK/MAP kinase 1/2 (pThr185/pTyr187), JNK (pThr183/pTyr185), and p38 (pThr180/pTyr182) were activated for these compounds.
(§3) We used a MILLIPLEX MAP Multi-Pathway Magnetic Bead 9-Plex-Cell Signaling Multiplex Assay kit (Merck/Millipore), according to the manufacturer’s protocol. A431 cells were cultured in DMEM with 10% FBS in 24-well plates. Compounds were added to the subconfluent cells at a concentration of 10 μM in DMEM medium for 1 h. Each compound was added in 5 experimental repeats. Cell lysates were prepared with lysis buffer (Millipore) with protease inhibitors (Complete, Roche); the protein concentration in the lysates was determined by the Lowry method. In samples equalized in protein concentration, the active forms of kinase cascades were determined using a Bio-Plex 200 fluorescent analyzer (Bio-Rad).

[2] = tested on: STAT3 (pSer727); assay: MILLIPLEX MAP 9-Plex, STAT3 active form in A431 lysates; type: cell-based, human; conditions: A431 cell lysates, 10 μM, 1 h, M ± mx; control 70.7 ± 18.3
From the text: as §1, §2, §3

[3] = tested on: CREB (pSer133); assay: MILLIPLEX MAP 9-Plex, CREB active form in A431 lysates; type: cell-based, human; conditions: A431 cell lysates, 10 μM, 1 h, M ± mx; control 154.5 ± 34.2
From the text: as §1, §2, §3

[4] = tested on: STAT5 (pTyr694/699); assay: MILLIPLEX MAP 9-Plex, STAT5 active form in A431 lysates; type: cell-based, human; conditions: A431 cell lysates, 10 μM, 1 h, M ± mx; control 44.2 ± 10.2
From the text: as §1, §2, §3

[5] = tested on: A431 cells; assay: IC50 on A431 cells (xCelligence RTCA cell index); type: cell-based; conditions: Homo sapiens, A-431
From the text: A431 cells are characterized by a high inducibility of transcription factors STAT3 and STAT5. In turn, phaeosphaeride A and its derivatives are probably inhibitors of the STAT3 gene. Therefore, the A431 cell line was chosen as a model for searching for possible targets for the action of phaeosphaeride A derivatives. Table 7 presents IC50 data for phaeosphaeride A derivatives on A431 cells.
as §2
To determine the integral cellular response using the xCelligence RTCA equipment (AceaBioscience, Santa Clara, CA, USA), 20 thousand cells were inoculated into a well of a specialized plate allowing the determination of the cell index in real time and cultured in complete growth medium. The next day after the seeding, the medium was replaced with an experimental one (compounds at concentrations of […]). The cell index was monitored for 3 days after the addition of the xenobiotic. The concentration closest to the IC50 (10 μM) was chosen as the experimental concentration.

[6] = tested on: Akt (pSer473); assay: MILLIPLEX MAP 9-Plex, Akt active form in A431 lysates; type: cell-based, human; conditions: A431 cell lysates, 10 μM, 1 h, M ± mx; control 76.4 ± 16.9
From the text: as §1, §2, §3

[7] = tested on: ERK 1/2 (pThr185/pTyr187); assay: MILLIPLEX MAP 9-Plex, ERK 1/2 active form in A431 lysates; type: cell-based, human; conditions: 10 μM
From the text: as §1, §2, §3

[8] = molecular target: STAT3/DNA binding; set-up: method as in PMID 18668431; conditions: read-out: IC50 value, inhibition of STAT3/DNA binding; cited from earlier work
[9] = tested on: JNK (pThr183/pTyr185); assay: MILLIPLEX MAP 9-Plex, JNK active form in A431 lysates; type: cell-based, human; conditions: 10 μM
From the text: as §1, §2, §3

[10] = tested on: p70S6K (pThr389/412); assay: MILLIPLEX MAP 9-Plex, p70S6K active form in A431 lysates; type: cell-based, human; conditions: A431 cell lysates, 10 μM, 1 h, M ± mx; control 39.9 ± 7.2
From the text: as §1, §2, §3

SMILES: C=C1C2=C(C(=O)N1OC)[C@H](O)[C@@](C)(O)[C@H](CCCCC)O2 [PPA, phaeosphaeride A]
- p38 (pThr180/pTyr182) fluorescence intensity ([1]; A431 cell lysates, 1 h, M ± mx, control 567.7 ± 266.6): 1459.1 ± 117.6 *↑ rel. units
- activation of signaling pathway p38 (pThr180/pTyr182), in words ([1]; A431 cells): only slightly activated
- STAT3 (pSer727) fluorescence intensity [2]: 128.8 ± 2.4 *↑ rel. units
- CREB (pSer133) fluorescence intensity [3]: 291.0 ± 32.8 *↑ rel. units
- STAT5 (pTyr694/699) fluorescence intensity [4]: 82.5 ± 3.5 *↑ rel. units
- pIC50 [5]: < 4.30
- Akt (pSer473) fluorescence intensity [6]: 123.5 ± 4.9 *↑ rel. units
- ERK ½ (pThr185/pTyr187) fluorescence intensity ([7]; A431 cell lysates, 1 h, M ± mx, control 839.7 ± 248.9): 995.4 ± 46.5 rel. units
- activation of signaling pathway ERK/MAP kinase 1/2 (pThr185/pTyr187), in words ([7]; A431 cells): only slightly activated
- pIC50 [8]: 3.21
- JNK (pThr183/pTyr185) fluorescence intensity ([9]; A431 cell lysates, 1 h, M ± mx, control 50.9 ± 10.5): 132.8 ± 9.1 *↑ rel. units
- activation of signaling pathway JNK (pThr183/pTyr185), in words ([9]; A431 cells): only slightly activated
- p70S6K (pThr389/412) fluorescence intensity [10]: 46.1 ± 2.9 rel. units
